Where two headings read alike, the source gives them in different places.
Columns and labels:
A549 = experiment: MTS cell viability assay; assay type: cell-based; settings: Homo sapiens, A549 non small cell lung, 72 hours, read-out: MTS NCI A549 GI50
Method in brief: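 A549 and a second human cancer line seeded in DMEM/10% FBS, allowed 16–24 h to attach, then exposed 72 h at 37 °C, 5% CO2 to serially diluted compound (final DMSO 0.33%). Viability measured by MTS.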

HsEg5 = target: T1, HsEg5 (Homo sapiens, UniProt P52732); experiment: Fluorescence detection of HsEg5 ATPase activity (ADP Quest, automated); assay type: biochemical
T1 sequence (P52732 18-359 limits assumed): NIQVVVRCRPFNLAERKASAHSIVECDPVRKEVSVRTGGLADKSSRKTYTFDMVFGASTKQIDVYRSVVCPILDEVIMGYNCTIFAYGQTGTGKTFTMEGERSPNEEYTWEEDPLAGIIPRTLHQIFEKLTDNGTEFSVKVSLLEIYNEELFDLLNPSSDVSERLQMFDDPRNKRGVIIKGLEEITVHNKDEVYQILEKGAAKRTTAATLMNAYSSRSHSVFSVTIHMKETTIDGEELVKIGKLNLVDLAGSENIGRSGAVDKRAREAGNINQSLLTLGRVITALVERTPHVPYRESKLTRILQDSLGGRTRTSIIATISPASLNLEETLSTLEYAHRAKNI
Method in brief: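 Microtubule-activated HsEg5 motor fragment (10 nM, 500 nM MTs) preincubated 10 min with compound, then 20 μM ATP for 10 min at room temperature in Pipes pH 7.0, MgCl2, paclitaxel, 0.3% DMSO. ADP detected via coupled-enzyme resorufin fluorescence; IC50 over 100 μM–5 nM.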

NCI-H460 = experiment: MTS cell viability assay; assay type: cell-based, human; settings: Homo sapiens, NCI-H460, 72 h
Method in brief: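 MTS-based viability: dehydrogenase activity of metabolically active cells after 72 h compound exposure, final […] PMS 7.67 mg/L for 4 hours, SDS to 1.4%, […]. GI50 derived; at least 2 replicates.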

[1] = read-out: MTS NCI H460 GI50, NCI-H460 non small cell lung, 72 hours

| Structure (SMILES) | GI50 (A549; A549, 72 h) [µM] | IC50 (HsEg5) [µM] | GI50 (NCI-H460; [1]) [µM] | GI50 (A549) [µM] | GI50 (NCI-H460; read-out: MTS NCI H460 GI50) [µM] |
| --- | --- | --- | --- | --- | --- |
| CC(C)CC(c1nc2cc(Cl)ccc2c(=O)n1Nc1ccccc1)N(CCCN)C(=O)c1ccc(F)c(Cl)c1 (stereo not drawn) [Compound 37, N-(3-Aminopropyl)-N-[1-(3-anilino-7-chloro-4-oxo-3,4-dihydroquinazolin-2-yl)-3-methylbutyl]-3-chloro-4-fluorobenzamide] | 5.02 | 1.66 | 4.49 | – | – |
| CSCCC(c1nc2cc(Cl)ccc2c(=O)n1Nc1ccccc1)N(CCCN)C(=O)c1ccc(C)c(F)c1F (stereo not drawn) [Compound 39, N-(3-Aminopropyl)-N-[1-(3-anilino-7-chloro-4-oxo-3,4-dihydroquinazolin-2-yl)-3-(methylthio)propyl]-2,3-difluoro-4-methylbenzamide] | – | 3.01 | – | 6.09 | 4.49 |
| CSCCC(c1nc2cc(Cl)ccc2c(=O)n1Nc1ccccc1)N(CCCN)C(=O)c1ccc(-n2cccn2)cc1 (stereo not drawn) [Compound 40, N-(3-Aminopropyl)-N-[1-(3-anilino-7-chloro-4-oxo-3,4-dihydroquinazolin-2-yl)-3-(methylthio)propyl]-4-(1H-pyrazol-1-yl)benzamide] | – | 2.83 | – | 6.12 | 8.35 |
| CC(c1nc2cc(Cl)ccc2c(=O)n1Nc1ccccc1)N(CCCN)C(=O)c1ccc(Cl)c(Cl)c1 (stereo not drawn) [Compound 41, N-(3-Aminopropyl)-N-[1-(3-anilino-7-chloro-4-oxo-3,4-dihydroquinazolin-2-yl)ethyl]-3,4-dichlorobenzamide] | – | 3.37 | – | 5.67 | 6.28 |
| CC(C)C(c1nc2cc(Cl)ccc2c(=O)n1Nc1ccccc1)N(CCCN)C(=O)c1cccc(F)c1F (stereo not drawn) [Compound 42, N-(3-Aminopropyl)-N-[1-(3-anilino-7-chloro-4-oxo-3,4-dihydroquinazolin-2-yl)-2-methylpropyl]-2,3-difluorobenzamide] | – | 0.476 | – | 4.28 | 2.08 |
| CC(C)C(c1nc2cc(Cl)ccc2c(=O)n1Nc1ccccc1)N(CCCN)C(=O)c1ccc(F)cc1 (stereo not drawn) [Compound 43, N-(3-Aminopropyl)-N-[1-(3-anilino-7-chloro-4-oxo-3,4-dihydroquinazolin-2-yl)-2-methylpropyl]-4-fluorobenzamide] | – | 0.833 | – | 3.49 | 2.81 |
| CC(C)C(c1nc2cc(Cl)ccc2c(=O)n1Nc1ccccc1)N(CCCN)C(=O)c1cccc(Br)c1 (stereo not drawn) [Compound 44, N-(3-Aminopropyl)-N-[1-(3-anilino-7-chloro-4-oxo-3,4-dihydroquinazolin-2-yl)-2-methylpropyl]-3-bromobenzamide] | 13.8 | 1.85 | 13.4 | – | – |
| CC(C)C(c1nc2cc(Cl)ccc2c(=O)n1Nc1ccccc1)N(CCCN)C(=O)c1cc(F)c(Cl)cc1F (stereo not drawn) [Compound 45, N-(3-Aminopropyl)-N-[1-(3-anilino-7-chloro-4-oxo-3,4-dihydroquinazolin-2-yl)-2-methylpropyl]-4-chloro-2,5-difluorobenzamide] | – | 0.743 | – | 3.24 | 3.17 |
| CC(C)C(c1nc2cc(Cl)ccc2c(=O)n1Nc1ccccc1)N(CCCN)C(=O)c1ccc2ccccc2n1 (stereo not drawn) [Compound 47, N-(3-Aminopropyl)-N-[1-(3-anilino-7-chloro-4-oxo-3,4-dihydroquinazolin-2-yl)-2-methylpropyl]quinoline-2-carboxamide] | – | 3.23 | – | 4.09 | 2.7 |
| NCCCN(C(=O)c1ccc(Br)cc1)C(Cc1cccs1)c1nc2cc(Cl)ccc2c(=O)n1Nc1ccccc1 (stereo not drawn) [Compound 48, N-(3-Aminopropyl)-N-[1-(3-anilino-7-chloro-4-oxo-3,4-dihydroquinazolin-2-yl)-2-(2-thienyl)ethyl]-4-bromobenzamide] | – | 2.57 | – | 4.93 | 4.36 |
| Cc1ccc(C(=O)N(CCCN)C(Cc2cccs2)c2nc3cc(Cl)ccc3c(=O)n2Nc2ccccc2)cc1 (stereo not drawn) [Compound 49, N-(3-Aminopropyl)-N-[1-(3-anilino-7-chloro-4-oxo-3,4-dihydroquinazolin-2-yl)-2-(2-thienyl)ethyl]-4-methylbenzamide] | 4.69 | 3.44 | 4.41 | – | – |
| NCCCN(C(=O)c1cccc(F)c1F)C(Cc1cccs1)c1nc2cc(Cl)ccc2c(=O)n1Nc1ccccc1 (stereo not drawn) [Compound 50, N-(3-Aminopropyl)-N-[1-(3-anilino-7-chloro-4-oxo-3,4-dihydroquinazolin-2-yl)-2-(2-thienyl)ethyl]-2,3-difluorobenzamide] | 3.77 | 1.18 | 3.12 | – | – |
| NCCCN(C(=O)c1ccc(F)cc1)C(Cc1cccs1)c1nc2cc(Cl)ccc2c(=O)n1Nc1ccccc1 (stereo not drawn) [Compound 51, N-(3-Aminopropyl)-N-[1-(3-anilino-7-chloro-4-oxo-3,4-dihydroquinazolin-2-yl)-2-(2-thienyl)ethyl]-4-fluorobenzamide] | – | 2.8 | – | 4.45 | 5.38 |
| NCCCN(C(=O)c1ccc(F)c(F)c1)C(Cc1cccs1)c1nc2cc(Cl)ccc2c(=O)n1Nc1ccccc1 (stereo not drawn) [Compound 52, N-(3-Aminopropyl)-N-[1-(3-anilino-7-chloro-4-oxo-3,4-dihydroquinazolin-2-yl)-2-(2-thienyl)ethyl]-3,4-difluorobenzamide] | 4.29 | 1.25 | 3.47 | – | – |
| NCCCN(C(=O)c1ccc(F)c(Cl)c1)C(Cc1cccs1)c1nc2cc(Cl)ccc2c(=O)n1Nc1ccccc1 (stereo not drawn) [Compound 53, N-(3-Aminopropyl)-N-[1-(3-anilino-7-chloro-4-oxo-3,4-dihydroquinazolin-2-yl)-2-(2-thienyl)ethyl]-3-chloro-4-fluorobenzamide] | 5.26 | 2.62 | 4.44 | – | – |
| NCCCN(C(=O)c1ccc(Cl)c(Cl)c1)C(Cc1ccc(O)cc1)c1nc2cc(Cl)ccc2c(=O)n1Nc1ccccc1 (stereo not drawn) [Compound 54, N-(3-Aminopropyl)-N-[1-(3-anilino-7-chloro-4-oxo-3,4-dihydroquinazolin-2-yl)-2-(4-hydroxyphenyl)ethyl]-3,4-dichlorobenzamide] | 12.2 | 2.41 | 11.9 | – | – |
| NCCCN(C(=O)c1ccc(F)c(F)c1F)C(Cc1ccc(O)cc1)c1nc2cc(Cl)ccc2c(=O)n1Nc1ccccc1 (stereo not drawn) [Compound 55, N-(3-Aminopropyl)-N-[1-(3-anilino-7-chloro-4-oxo-3,4-dihydroquinazolin-2-yl)-2-(4-hydroxyphenyl)ethyl]-2,3,4-trifluorobenzamide] | 33.7 | 4.16 | 16.1 | – | – |
| C#CCC(c1nc2cc(Cl)ccc2c(=O)n1Nc1ccccc1)N(CCCN)C(=O)c1cc(F)c(Cl)cc1F (stereo not drawn) [Compound 56, N-(3-Aminopropyl)-N-[1-(3-anilino-7-chloro-4-oxo-3,4-dihydroquinazolin-2-yl)but-3-yn-1-yl]-4-chloro-2,5-difluorobenzamide] | – | 0.138 | – | 3.82 | 1.86 |
| C#CCC(c1nc2cc(Cl)ccc2c(=O)n1Nc1ccccc1)N(CCCN)C(=O)c1cccc(Cl)c1F (stereo not drawn) [Compound 57, N-(3-Aminopropyl)-N-[1-(3-anilino-7-chloro-4-oxo-3,4-dihydroquinazolin-2-yl)but-3-yn-1-yl]-3-chloro-2-fluorobenzamide] | – | 0.0506 | – | 0.433 | 0.766 |
| CC(C)(C)CC(c1nc2cc(Cl)ccc2c(=O)n1Nc1ccccc1)N(CCCN)C(=O)c1ccc(Br)cc1 (stereo not drawn) [Compound 58, N-(3-Aminopropyl)-N-[1-(3-anilino-7-chloro-4-oxo-3,4-dihydroquinazolin-2-yl)-3,3-dimethylbutyl]-4-bromobenzamide] | – | 3.69 | – | 5.88 | 5.55 |
| CCC(c1nc2cc(Cl)ccc2c(=O)n1Nc1ccccc1)N(CCN)C(=O)c1ccc(C)cc1 (stereo not drawn) [Compound 61, N-(2-Aminoethyl)-N-[1-(3-anilino-7-chloro-4-oxo-3,4-dihydroquinazolin-2-yl)propyl]-4-methylbenzamide] | – | 3.89 | – | 14.2 | 12.5 |
| CCC(c1nc2cc(Cl)ccc2c(=O)n1Nc1ccccc1)N(CCN)C(=O)c1c(F)ccc(C)c1F (stereo not drawn) [Compound 62, N-(2-Aminoethyl)-N-[1-(3-anilino-7-chloro-4-oxo-3,4-dihydroquinazolin-2-yl)propyl]-2,6-difluoro-3-methylbenzamide] | – | 3.74 | – | 21.7 | 22.8 |
| CCC(c1nc2cc(Cl)ccc2c(=O)n1Nc1ccccc1)N(CCN)C(=O)c1ccc(F)c(C)c1 (stereo not drawn) [Compound 63, N-(2-Aminoethyl)-N-[1-(3-anilino-7-chloro-4-oxo-3,4-dihydroquinazolin-2-yl)propyl]-4-fluoro-3-methylbenzamide] | – | 3.34 | – | 7.02 | 10.5 |

— patent publication US20110217300A1, “Quinazolinone Compounds and Methods of Use Thereof” (priority 2007, published 2011)
